In the NIST ThermoML archive (doi:10.1021/je100875a):

Experiment: mn = molality of the nth substance listed, in mol/kg
Conditions: 101 kPa, Liquid

O=[N+]([O-])[O-].O=[N+]([O-])[O-].O=[N+]([O-])[O-].[Ce+3] [cerium nitrate] + O
mass density [kg/m3]
Conditions	m1 = 0.5112	m1 = 1.031	m1 = 1.555	m1 = 1.997	m1 = 3.131	m1 = 3.968	m1 = 4.462
293.15 K	1131.2	1252.8	1361.9	1446.2	1633.2	1746.4	1806
298.15 K	1129.3	1250.2	1358.8	1443.1	1629.1	1742.4	1801.8
308.15 K	1124.7	1244.4	1352	1435.7	1620.5	1733.1	1792.2

O=[N+]([O-])[O-].O=[N+]([O-])[O-].O=[N+]([O-])[O-].[La+3] [lanthanum(III) nitrate] + O
mass density [kg/m3]
Conditions	m1 = 0.4953	m1 = 0.9893	m1 = 1.48	m1 = 1.97	m1 = 2.93	m1 = 3.9	m1 = 4.385
293.15 K	1125.6	1240.6	1343.1	1436.9	1595.8	1729.3	1787.9
298.15 K	1123.8	1238.1	1340.1	1433.6	1591.8	1725.3	1783.8
308.15 K	1119.2	1231.6	1333.5	1426.3	1583.4	1716.3	1774.6

O=[N+]([O-])[O-].O=[N+]([O-])[O-].O=[N+]([O-])[O-].[Nd+3] [neodymium(III) nitrate] + O
mass density [kg/m3]
Conditions	m1 = 0.522	m1 = 1.021	m1 = 1.555	m1 = 2.093	m1 = 3.086	m1 = 4.124	m1 = 4.297
566.3 K	1136.1	1255.1	1369.8	1474.7	1642.1	1785.9	1807
571.3 K	1134.2	1252.5	1366.7	1471.1	1637.8	1781.1	1802.7
581.3 K	1129.6	1246.7	1359.9	1463.5	1628.8	1771.4	1792.8

O=[N+]([O-])[O-].O=[N+]([O-])[O-].O=[N+]([O-])[O-].[Y+3] [yttrium nitrate] + O
mass density [kg/m3]
Conditions	293.15 K	298.15 K	308.15 K
m1 = 0.2775	–	1057.4	–
m1 = 0.3213	–	1066.6	–
m1 = 0.3706	–	1076.9	–
m1 = 0.4172	–	1086.5	–
m1 = 0.4989	1105.5	1103.5	1099.2
m1 = 0.9965	1202.6	1200.2	1194.7
m1 = 1.497	1290.8	1287.8	1281.4
m1 = 1.982	1368.7	1365.4	1358.2
m1 = 2.947	1502.8	1498.9	1490.5
m1 = 3.945	1615.7	1611.4	1602.2
m1 = 4.957	1708.9	1704.3	1694.7
